Measured values as given in US20190133968A1, “Applications of benzophenones in preparation of drug” (SHANXI MEDICAL UNIVERSITY, priority 2016, published 2019).

How the values were obtained:
[1] = tested on: Escherichia coli ATCC25922 standard strain; assay: urinary and renal bacterial culture of acute pyelonephritis rats; format: in vivo, SD rats; details: gavage, 10 days; for Renal bacterial culture score: mean score, scale 1-4 of Table 10 (colony number <10, >10, >100, >1000); for Urinary bacterial A value (OD600 nm): urine culture
Description: Ninety male SD rats having a weight of 180-220 g are selected, wherein: ten rats are selected as a sham-operated group (only being processed with ligation, without injecting with Escherichia coli), and the remaining rats are injected with Escherichia coli ATCC25922 standard strain having a concentration of 10^8/ml according to the method (disclosed in the Chinese Journal of Laboratory Animal Science, 1998, 8(1): pages 31-34) for preparing the acute pyelonephritis model rats.
After three days, urine of the rats is collected for bacterial culture, and the growth situation of the bacteria is observed. If the result is positive, the model rats are successively established; the unqualified rats are excluded, and the operation is made again for complementing the rats. The successively established model rats are randomly divided into the model group, the norfloxacin group (66.7 mg/kg), the LM49 solid dispersion low-dose group (with the drug concentration of 3 mg/kg), the LM49 solid dispersion medium-dose group (with the drug concentration of 9 mg/kg), the LM49 solid dispersion high-dose group (with the drug concentration of 27 mg/kg), the A8 solid dispersion low-dose group (with the drug concentration of 3 mg/kg), the A8 solid dispersion medium-dose group (with the drug concentration of 9 mg/kg), and the A8 solid dispersion high-dose group (with the drug concentration of 27 mg/kg).
The rats of the sham-operated group and the model group are administrated with the normal saline of same volume by gavage, and the rats of the other groups are respectively administrated with the drugs of the corresponding dose, once a day for consecutive ten days.
After finishing administration, urine of the rats of all groups is collected (for observing the bacterial growth situation). The abdominal aorta blood of the rats is drawn (for measuring the blood routine, CD4/CD8, urine creatinine and serum creatinine in the serum; and for measuring contents of IL-1α, IL-1β, IL-6, IL-10 and MCP-1 in the serum with the ELISA method). Two kidneys of each rat are cut (wherein a part is homogenated for bacterial culture, and the other part is used for observing the pathomorphology change).

[2] = tested on: chronic nephritis rats; assay: chronic nephritis rat model (passive Heymann nephritis); format: in vivo, SD rats; details: gavage; for IL-1α / IL-1β / IL-6 / IL-10 / Scr: serum
Description: The solid dispersions are prepared through a solvent method, comprising steps of: respectively precisely weighing LM49, PVPK30 and tween80 with a weight ratio of 1:5:1, and A8, PVPK30 and tween80 with a weight ratio of 1:4:1; dissolving with appropriate absolute ethyl alcohol, continuously stirring, and uniformly mixing; placing on the water bath at 60° C., evaporating and removing the absolute ethyl alcohol, and obtaining a viscous material; placing in the freezer at −20° C., and freezing for 2 hours; taking out from the freezer, then placing in the vacuum drying oven, and drying for 24 hours; after becoming embrittlement, smashing and sieving with a sieve of 80 meshes, and then placing in the dryer for storage.
The passive Heymann nephritis is the classic model for researching the human chronic nephrosis. Thus, the present invention researches the effects of the two disclosed compounds on preventing the chronic nephritis with the model.
Ninety male SD rats having a weight of 180-220 g are selected, wherein: ten rats are selected as a blank group, and the remaining rats are used for preparing the rat Heymann nephritis models according to the method (disclosed in Journal of Proteomics, 2012, 75(3): pages 3866-3876). The successively established model rats are randomly divided into the model group, the positive control group (dexamethasone with a concentration of 0.1 mg/kg), the LM49 solid dispersion low-dose group (with the drug concentration of 3 mg/kg), the LM49 solid dispersion medium-dose group (with the drug concentration of 9 mg/kg), the LM49 solid dispersion high-dose group (with the drug concentration of 27 mg/kg), the A8 solid dispersion low-dose group (with the drug concentration of 3 mg/kg), the A8 solid dispersion medium-dose group (with the drug concentration of 9 mg/kg), and the A8 solid dispersion high-dose group (with the drug concentration of 27 mg/kg).
The rats of the blank group and the model group are administrated with the normal saline of same volume, and the rats of the other groups are respectively administrated with the drugs of the corresponding dose, by gavage, every day from model establishment for four weeks.
The blood of the rats of all groups is drawn at the second week and the fourth week from model establishment and 24-hour urine thereof is collected, for respectively measuring the contents of the urinary albumin, serum creatinine (Scr) in the serum, BUN, IL-1α, IL-1β, IL-6 and IL-10.
The data is represented in mean±(standard deviation) (x±s) and processed with the SPSS 19.0 statistical software. The one-way analysis of variance (ANOVA) is adopted for comparison among the groups, and then the LSD-Test is adopted for pairwise comparison. The differences of P<0.05 and P<0.01 are statistically significant.

[3] = high-dose 27 mg/kg, Fourth week
[4] = high-dose 27 mg/kg, Second week
[5] = medium-dose 9 mg/kg, Fourth week
[6] = medium-dose 9 mg/kg, Second week

Q: Which results are given for `O=C(c1cc(OC(=O)N2CCOCC2)c(OC(=O)N2CCOCC2)cc1Cl)c1cc(Cl)ccc1OC(=O)N1CCOCC1` [A8, 4,5,2′-tris(4-morpholinemethanoyl)-2,5′-dichlorobenzophenone]?
A: Renal bacterial culture score ([1]; high-dose 27 mg/kg): 1.5 ± 0.33^ΔΔ; Urinary bacterial A value (OD600 nm) ([1]; high-dose 27 mg/kg): 0.274 ± 0.113^ΔΔ; Renal bacterial culture score ([1]; low-dose 3 mg/kg): 3.6 ± 0.57^; Urinary bacterial A value (OD600 nm) ([1]; low-dose 3 mg/kg): 0.332 ± 0.131^; Renal bacterial culture score ([1]; medium-dose 9 mg/kg): 2.6 ± 0.23^Δ; Urinary bacterial A value (OD600 nm) ([1]; medium-dose 9 mg/kg): 0.304 ± 0.125^Δ; 24-hour urinary protein quantitation [2, 3]: 8.26 ± 1.9^ΔΔ## mg/24 h; 24-hour urinary protein quantitation [2, 4]: 14.77 ± 3.6^ΔΔ mg/24 h; IL-1α [2, 3]: 7.33 ± 2.14^ΔΔ pg/ml; IL-1β [2, 3]: 99.44 ± 39.74^ΔΔ# pg/ml; IL-6 [2, 3]: 56.95 ± 20.44^ΔΔ pg/ml; IL-10 [2, 3]: 40.21 ± 13.01 pg/mL; Scr [2, 3]: 44.55 ± 10.7 µmol/L; IL-1α [2, 4]: 10.69 ± 3.76 pg/mL; IL-1β [2, 4]: 198.20 ± 90.01^Δ pg/ml; IL-6 [2, 4]: 78.66 ± 35.92^ΔΔ pg/ml; IL-10 [2, 4]: 60.25 ± 22.34 pg/mL; Scr [2, 4]: 41.04 ± 10.1 µmol/L; 24-hour urinary protein quantitation ([2]; low-dose 3 mg/kg, Fourth week): 30.22 ± 6.8 mg/24 h; 24-hour urinary protein quantitation ([2]; low-dose 3 mg/kg, Second week): 32.98 ± 7.7 mg/24 h; IL-1α ([2]; low-dose 3 mg/kg, Fourth week): 12.65 ± 3.14 pg/mL; IL-1β ([2]; low-dose 3 mg/kg, Fourth week): 261.33 ± 76.55^ pg/ml; IL-6 ([2]; low-dose 3 mg/kg, Fourth week): 89.33 ± 29.89^Δ pg/ml; IL-10 ([2]; low-dose 3 mg/kg, Fourth week): 70.66 ± 32.28 pg/mL; Scr ([2]; low-dose 3 mg/kg, Fourth week): 47.36 ± 13.1 µmol/L; IL-1α ([2]; low-dose 3 mg/kg, Second week): 14.01 ± 3.99 pg/mL; IL-1β ([2]; low-dose 3 mg/kg, Second week): 310.21 ± 70.01 pg/mL; IL-6 ([2]; low-dose 3 mg/kg, Second week): 111.79 ± 36.28 pg/mL; IL-10 ([2]; low-dose 3 mg/kg, Second week): 89.33 ± 36.77 pg/mL; Scr ([2]; low-dose 3 mg/kg, Second week): 44.33 ± 11.1 µmol/L; 24-hour urinary protein quantitation [2, 5]: 15.01 ± 4.4^ΔΔ mg/24 h; 24-hour urinary protein quantitation [2, 6]: 20.02 ± 5.2^Δ mg/24 h; IL-1α [2, 5]: 10.10 ± 4.01 pg/mL; IL-1β [2, 5]: 192.56 ± 64.69^Δ pg/ml; IL-6 [2, 5]: 73.57 ± 25.60^ΔΔ pg/ml; IL-10 [2, 5]: 61.48 ± 24.53 pg/mL; Scr [2, 5]: 45.99 ± 14.4 µmol/L; IL-1α [2, 6]: 12.63 ± 4.56 pg/mL; IL-1β [2, 6]: 277.65 ± 60.39 pg/mL; IL-6 [2, 6]: 90.31 ± 30.41^Δ pg/ml; IL-10 [2, 6]: 74.55 ± 32.12 pg/mL; Scr [2, 6]: 45.66 ± 12.2 µmol/L

Q: With `O=C(c1cc(Br)ccc1O)c1cc(O)c(O)cc1Br` [LM49, 2,5′-dibromo-4,5,2′-trihydroxyldiphenylmethanone] as the compound, how does the “Renal bacterial culture score” value ([1]; high-dose 27 mg/kg) read?
A: The value was 1.9 ± 0.57^ΔΔ.

Q: And the “Urinary bacterial A value (OD600 nm)” value ([1]; high-dose 27 mg/kg)?
A: The value was 0.304 ± 0.109^Δ.

Q: What about the “Renal bacterial culture score” value ([1]; low-dose 3 mg/kg) of the same compound?
A: Its value is 3.9 ± 0.32^.

Q: And the “Urinary bacterial A value (OD600 nm)” value ([1]; low-dose 3 mg/kg)?
A: Its value is 0.353 ± 0.128^.

Q: What about the “Renal bacterial culture score” value ([1]; medium-dose 9 mg/kg) of the same compound?
A: The value was 3.4 ± 0.52^Δ.

Q: What about the “Urinary bacterial A value (OD600 nm)” value ([1]; medium-dose 9 mg/kg) of the same compound?
A: The value was 0.331 ± 0.100^Δ.

Q: And the “24-hour urinary protein quantitation” value [2, 3]?
A: Its value is 9.55 ± 2.8^ΔΔ## mg/24 h.

Q: What about the “24-hour urinary protein quantitation” value [2, 4] of the same compound?
A: The value was 18.11 ± 3.2^Δ mg/24 h.

Q: What about the IL-1α [2, 3] of the same compound?
A: The IL-1α was 8.42 ± 2.76^ΔΔ pg/ml.

Q: What about the IL-1β [2, 3] of the same compound?
A: The IL-1β was 200.44 ± 59.31^Δ pg/ml.

Q: And the IL-6 [2, 3]?
A: Its IL-6 is 77.03 ± 36.53^ΔΔ pg/ml.

Q: And the IL-10 [2, 3]?
A: The IL-10 was 31.42 ± 10.09 pg/mL.

Q: And the Scr [2, 3]?
A: Its Scr is 46.97 ± 11.6 µmol/L.

Q: What about the IL-1α [2, 4] of the same compound?
A: The IL-1α was 11.44 ± 3.95 pg/mL.

Q: What about the IL-1β [2, 4] of the same compound?
A: Its IL-1β is 227.21 ± 95.41^Δ pg/ml.

Q: What about the IL-6 [2, 4] of the same compound?
A: The IL-6 was 91.11 ± 40.63^ΔΔ pg/ml.

Q: And the IL-10 [2, 4]?
A: The IL-10 was 55.75 ± 17.61 pg/mL.

Q: And the Scr [2, 4]?
A: Its Scr is 41.42 ± 10.6 µmol/L.

Q: And the “24-hour urinary protein quantitation” value ([2]; low-dose 3 mg/kg, Fourth week)?
A: The value was 22.18 ± 6.3 mg/24 h.

Q: What about the “24-hour urinary protein quantitation” value ([2]; low-dose 3 mg/kg, Second week) of the same compound?
A: The value was 34.43 ± 6.6 mg/24 h.

Q: What about the IL-1α ([2]; low-dose 3 mg/kg, Fourth week) of the same compound?
A: The IL-1α was 13.98 ± 3.77 pg/mL.

Q: What about the IL-1β ([2]; low-dose 3 mg/kg, Fourth week) of the same compound?
A: Its IL-1β is 380.39 ± 80.66^ pg/ml.

Q: And the IL-6 ([2]; low-dose 3 mg/kg, Fourth week)?
A: Its IL-6 is 130.12 ± 45.19 pg/mL.

Q: What about the IL-10 ([2]; low-dose 3 mg/kg, Fourth week) of the same compound?
A: Its IL-10 is 60.01 ± 26.61 pg/mL.

Q: And the Scr ([2]; low-dose 3 mg/kg, Fourth week)?
A: The Scr was 47.78 ± 11.2 µmol/L.

Q: What about the IL-1α ([2]; low-dose 3 mg/kg, Second week) of the same compound?
A: Its IL-1α is 14.53 ± 4.76 pg/mL.

Q: What about the IL-1β ([2]; low-dose 3 mg/kg, Second week) of the same compound?
A: The IL-1β was 388.25 ± 72.31 pg/mL.

Q: What about the IL-6 ([2]; low-dose 3 mg/kg, Second week) of the same compound?
A: Its IL-6 is 131.23 ± 41.33 pg/mL.

Q: What about the IL-10 ([2]; low-dose 3 mg/kg, Second week) of the same compound?
A: Its IL-10 is 80.09 ± 33.11 pg/mL.

Q: And the Scr ([2]; low-dose 3 mg/kg, Second week)?
A: Its Scr is 49.44 ± 11.1 µmol/L.

Q: What about the “24-hour urinary protein quantitation” value [2, 5] of the same compound?
A: The value was 17.65 ± 5.7^ΔΔ mg/24 h.

Q: What about the “24-hour urinary protein quantitation” value [2, 6] of the same compound?
A: The value was 24.99 ± 5.0 mg/24 h.

Q: What about the IL-1α [2, 5] of the same compound?
A: The IL-1α was 12.15 ± 4.76 pg/mL.

Q: What about the IL-1β [2, 5] of the same compound?
A: The IL-1β was 297.55 ± 94.66^Δ pg/ml.

Q: What about the IL-6 [2, 5] of the same compound?
A: Its IL-6 is 90.66 ± 40.03^Δ pg/ml.

Q: And the IL-10 [2, 5]?
A: The IL-10 was 51.51 ± 18.09 pg/mL.

Q: What about the Scr [2, 5] of the same compound?
A: Its Scr is 46.57 ± 10.9 µmol/L.

Q: And the IL-1α [2, 6]?
A: The IL-1α was 13.62 ± 4.87 pg/mL.

Q: And the IL-1β [2, 6]?
A: The IL-1β was 351.11 ± 100.32 pg/mL.

Q: And the IL-6 [2, 6]?
A: The IL-6 was 100.15 ± 32.51 pg/mL.

Q: And the IL-10 [2, 6]?
A: The IL-10 was 61.31 ± 23.89 pg/mL.

Q: And the Scr [2, 6]?
A: Its Scr is 45.88 ± 12.2 µmol/L.
